This note sets out measurements from patent US7994219B2, “Approach to anti-microbial host defense with molecular shields with lipoxin compounds” (The Brigham and Women's Hospital, Inc., priority 2001, dated 2011).

The test system of test [1] is BPI. The test is described as follows: Semi-quantitative RT-PCR of BPI transcript in KB cells. The class given is cell-based, human.
The next test deals with Salmonella typhimurium. Briefly: Bacterial killing assay: adherent Caco2 cells with Salmonella typhimurium (CFU). Format: cell-based. To be noted: Caco2 pre-exposure to 1 μM ATLa, 24 hr; killing over 60 min. The method, then: Salmonella typhimurium (strain 14028 from American Type Culture Collection, Rockville, Md.) were cultured and grown in Luria broth as previously described (22). In subsets of experiments, Enterococcus faecalis (strain PCI 1326 from American Type Culture Collection, Rockville, Md.) were cultured as previously described (23). Caco2 epithelial cells were grown to confluence of 60 mm petri dishes and exposed to indicated experimental conditions. Cells were washed once with HBSS, and washed bacteria were added to epithelial monolayers at a ratio of 50 bacteria per adherent epithelial cell. Incubations were allowed to proceed for 90 minutes or as indicated on a rotating platform. Parallel samples omitting epithelial cells were used as controls. Following incubation, supernatants were collected and epithelial cells were hypotonically lysed with 1 ml ice cold water. Bacteria were pelleted, dilutions of both pellets and supernatants were plated, incubated overnight at 37° C., and colony counts were performed. In subsets of experiments, anti-BPI antisera (1:300 in HBSS) or anti-BPI antisera pre-adsorbed with rBPI (1:300 in HBSS), as indicated, were added 30 minutes prior to incubation with bacteria. Data are presented as the mean±S.E.M. CFU.

Test [2] concerns BPI. Briefly: Immunoprecipitation of biotinylated plasma membrane protein and avidin blot for surface BPI in T84 cells. The class given is cell-based, human. The note with it: 1 μM ATLa, at 36 h. On the procedure:
Epithelial cells were grown to confluence on 45 cm^2 permeable supports, and exposed to ATLa or vehicle (0.01% EtOH), as indicated. Cells were washed extensively in HBSS, cooled to 4° C., and extracellular proteins were biotinylated (1 mM NHS-biotin (Pierce Chemical Co., Rockford, Ill.) in HBSS) as previously described (18). Plasma membranes were isolated using nitrogen cavitation (200 psi, 8 min., 4° C.) as previously described (18). Recombinant human BPI (100 ng/ml, was directly biotinylated and excess biotin was removed by multiple washes on a 5 kD cut-off membrane filter (Amicon, Beverly Mass.). Fractions were pre-cleared with 50 μl pre-equilibrated protein-G sepharose (Pharmacia, Uppsala Sweden). Immunoprecipitation of BPI was performed with goat polyclonal anti-BPI followed by addition of 50 μl pre-equilibrated protein-G sepharose and overnight incubation. Washed immunoprecipitates were boiled in non-reducing sample buffer (2.5% SDS, 0.38 M Tris pH 6.8, 20% glycerol, and 0.1% bromophenol blue), resolved by non-reducing SDS-PAGE (18% polyacrylamide gel), transferred to nitrocellulose, and blocked overnight in blocking buffer. Biotinylated proteins were labeled with streptavidin-peroxidase (Pierce Chemical Co., Rockford, Ill.) and visualized by enhanced chemiluminescence (ECL; Amersham, Arlington Heights, Ill.).

Test [3] deals with BPI. Briefly: Confocal microscopy of surface BPI on non-permeabilized Caco2 cells. The class given is cell-based, human. The note with it: 1 μM for 24 hr. On the procedure: OKF6 or Caco2 cells were grown to confluence on acid washed 12 mm glass coverslips. Monolayers were exposed to indicated experimental conditions, washed once in phosphate buffered saline, and fixed for 10 minutes at room temperature in 1% paraformaldehyde in cacodylate buffer (0.1M sodium cacodylate; pH 7.4, 0.72% sucrose). After washing twice with PBS, the cells were incubated for 1 hour with rabbit polyclonal BPI antisera (1:300 dilution) or control sera (equivalent dilution depleted of specific antibody through 3 consecutive adsorptions with sepharose beads covalently linked to rBPI via cyanogens bromide coupling, kit from Pierce Chemical Co., Rockford, Ill.). After washing, the monolayers were incubated with goat anti-rabbit Oregon Green (1 μg/ml, Molecular Probes, Eugene, Oreg.). Cells were imaged on a BioRad MRC-600 confocal fluorescence microscope.

In test [4] the test system is BPI. Briefly: RT-PCR of BPI transcript in OKF6, T84 and Caco2 epithelial cells. Format: cell-based, human.
For test [5], the system named is BPI. The test is described as follows: Quantitative genechip microarray transcriptional profile of KB epithelial cells exposed to ATLa. Format: cell-based, human. The note with it: 1 μM ATLa.
The test system of another test is bacteria. The test is described as follows: Direct incubation of ATLa or anti-BPI with bacteria and colony counts. Format: cell-based. The note with it: direct incubation with bacteria, no epithelial cells; data not shown.

For orientation: EC50 means the concentration giving half of the maximal effect.

Turning to `CCCCCC/C=C/C=C/C=C/C=C/[C@@H](O)[C@@H](O)CCCC(=O)O` [15-deoxy-LXA4, reference compound], the “induction of BPI at the mRNA level” value in the test on BPI [1] (epithelial exposure to similar concentrations as ATLa, data not shown) is on record as “no induction”.

For the compound `O=C(O)CCC[C@H](O)[C@H](O)/C=C/C=C/C=C\C=C\[C@@H](O)COc1ccc(F)cc1` [ATLa, 15-epi-16-(para-fluoro)-phenoxy-LXA4], the “increase in killing of S. typhimurium” value in the test with Salmonella typhimurium is roughly 60%. Also, the “maximal increase of ~55 kDa surface protein consistent with BPI by densitometry” value with BPI [2] worked out at 12.5 fold. The “surface-bound BPI expression” value with BPI [3] is reported as “increased expression”. For the same compound, the “maximal increase of BPI transcript relative to β-actin by densitometry” value in the test with BPI [1] (KB cells, 1 μM, 8 h, compared to vehicle control) was 4.3 fold. Moreover, the EC50 in the test with BPI [1] (KB cells, 8 hr, 28 cycles of PCR, approximate, read-out: EC50 of BPI transcript induction (dose response)) is roughly 50 nM. Further, the “BPI induction relative to β-actin” value in the test on BPI [4] (OKF6, T84 and Caco2 cells, 1 μM, 26 cycles of PCR) is “prominent pattern of time-dependent BPI induction”. Moreover, the “BPI mRNA increase over control (microarray)” value stood at 3.2 fold in the test on BPI [5] (4 hrs exposure) and 2.9 fold with BPI [5] (8 hrs exposure). Also, the “direct bactericidal activity or non-specific agglutination” value with bacteria is listed as “not explained by bactericidal activity or non-specific agglutination”.

On to pertussis toxin [reference compound], for which, in the test with BPI [4] (Caco2 pre-exposure to pertussis toxin 1 μM, 30 min, ATLa 1 μM, 18 h), the “decrease in BPI induction by ATLa” value is recorded as 65%.
